Results on 19 compounds are retold here after patent publication US20260137706A1, “METHODS OF TREATING INFLAMMATORY DISEASES” (INTERLINE THERAPEUTICS, INC., priority 2023, published 2026).

The test system of test [1] is NF-κB pathway (SEAP) in THP1-Dual cells. Briefly: THP-1 Dual cell SEAP assay (L18-MDP stimulated). The format is cell-based. The settings on record: Homo sapiens, THP1-Dual, read-out: NF-κB THP1 IC50 bin. In short, it runs like this: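 THP1-Dual cells (~25,000/well) were preincubated 30 min with serially diluted compounds, then stimulated with 10 ng/mL L18-MDP (final) for 20-24 h at 37 °C. Supernatant SEAP was read with QUANTI-Blue at OD 620-655 nm after 2 h. IC50 came from non-linear fits of % inhibition versus DMSO/L18-MDP controls after media-blank subtraction.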

Test [2] concerns the target T1, GST-RIPK2 fusion protein (human RIPK2, amino acids 1-310) (Homo sapiens, UniProt O43353).
T1 construct: made in house; host or cells: baculovirus infected Sf9 cells
As to the kind of experiment: RIPK2 binding competition assay (TR-FRET, Tracer 199 displacement). The settings on record: 10 nM Tracer 199, 1 nM GST-RIPK2, read-out: RIPK2 IC50. In short, it runs like this: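 GST-RIPK2 (human aa 1-310, Sf9-expressed; final 1 nM) with Tracer 199 (final 10 nM) and Tb-anti-GST (final 0.5 nM) in Tris pH 7.5 buffer, 45 min at 22 °C. TR-FRET 665/620 nm ratio after 337 nm excitation; normalized to no-inhibitor (0%) and no-protein (−100%), giving IC50.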

In test [3] the target is T2, binding of His-XIAP(BIR2)-avi fusion protein to GST-RIPK2 fusion protein (RIPK2/XIAP) (Homo sapiens, UniProt O43353).
T2 construct: made in house; host or cells: baculovirus infected Sf9 cells
T2 sequence (O43353 1-310 limits assumed): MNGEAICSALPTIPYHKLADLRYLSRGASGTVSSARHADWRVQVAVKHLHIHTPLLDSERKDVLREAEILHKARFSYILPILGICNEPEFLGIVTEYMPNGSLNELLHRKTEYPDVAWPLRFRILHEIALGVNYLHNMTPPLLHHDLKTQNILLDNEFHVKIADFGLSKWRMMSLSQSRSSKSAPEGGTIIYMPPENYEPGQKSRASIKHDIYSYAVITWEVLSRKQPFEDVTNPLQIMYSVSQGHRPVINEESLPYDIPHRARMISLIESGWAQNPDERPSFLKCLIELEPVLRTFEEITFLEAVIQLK
Briefly: RIPK2-XIAP binding competition PPI assay (TR-FRET). The settings on record: RIPK2/XIAP binding competition PPI assay; for Emax: Amax, read-out: PPI Amax bin; for IC50: read-out: PPI IC50 bin. In short, it runs like this: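 Compounds (in DMSO, 100-fold stock) incubated 120 min at 23 °C with 1 nM GST-RIPK2 (aa 1-310) and 25 nM His-XIAP(BIR2 aa 152-231)-avi, plus anti-His-XL665 and anti-GST-Tb, in pH 7.5 Tris buffer. Read-out: 665/520 nm emission ratio. Normalized to no-inhibitor (0%) and 50 nM GSK583 (−100%); Amax binned A–D.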

T1 sequence (O43353 1-310): as the sequence (O43353 1-310 limits assumed) above

On to `C[C@H](CO)COc1cc2ncc(-c3cc(F)c(N)nc3F)n2cc1S(=O)(=O)C(C)(C)C` [Example 176, (R)-3-((3-(6-amino-2,5-difluoropyridin-3-yl)-6-(tert-butylsulfonyl)imidazo[1,2-a]pyridin-7-yl)oxy)-2-methylpropan-1-ol], for which the 50% inhibitory concentration (IC50) was in the range of 50 to 250 nM in test [1], 1 to 2.5 nM in test [2] and 1 to 2.5 nM in test [3]. The Emax in test [3] was > 80%.

Regarding `CC(C)(C)S(=O)(=O)c1cn2c(-c3cc(F)c(N)nc3F)cnc2cc1OCC1(O)CC1` [Example 177, 1-(((3-(6-amino-2,5-difluoropyridin-3-yl)-6-(tert-butylsulfonyl)imidazo[1,2-a]pyridin-7-yl)oxy)methyl)cyclopropan-1-ol], the values for the IC50 in test [1], in test [2] and in test [3] were 50 to 250 nM, 1 to 2.5 nM and 2.5 to 20 nM, respectively. The Emax in test [3] was > 80%.

Regarding `COc1cc2ncc(-c3cc(NS(=O)(=O)C4(CO)CC4)c(OC)c(OC)c3)n2cc1S(=O)(=O)C(C)(C)C` [Example 178, N-(5-(6-(tert-butylsulfonyl)-7-methoxyimidazo[1,2-a]pyridin-3-yl)-2,3-dimethoxyphenyl)-1-(hydroxymethyl)cyclopropane-1-sulfonamide], the IC50 in test [1] is < 50 nM; in test [2], < 1 nM; in test [3], < 1 nM. Besides, in test [3], the Emax is > 80%.

As for `COc1cc2ncc(-c3cccc(NS(=O)(=O)C4(CO)CC4)c3)n2cc1S(=O)(=O)C(C)(C)C` [Example 179, N-(3-(6-(tert-butylsulfonyl)-7-methoxyimidazo[1,2-a]pyridin-3-yl)phenyl)-1-(hydroxymethyl)cyclopropane-1-sulfonamide], the IC50 was > 1000 nM in test [1], 2.5 to 20 nM in test [2] and 2.5 to 20 nM in test [3]. The Emax in test [3] was 55 to 80%.

For `COc1cc2ncc(-c3cc(F)c(OC)c(NS(=O)(=O)C4(CO)CC4)c3)n2cc1S(=O)(=O)C(C)(C)C` [Example 180, N-(5-(6-(tert-butylsulfonyl)-7-methoxyimidazo[1,2-a]pyridin-3-yl)-3-fluoro-2-methoxyphenyl)-1-(hydroxymethyl)cyclopropane-1-sulfonamide], the IC50 in test [1] was 50 to 250 nM; in test [2], 1 to 2.5 nM; in test [3] it was < 1 nM. In addition, in test [3], the Emax was > 80%.

Consider `COc1cn2ncc(-c3cc(F)c(OC)c(NS(=O)(=O)C4(CO)CC4)c3)c2cc1S(=O)(=O)C(C)(C)C` [Example 181, N-(5-(5-(tert-butylsulfonyl)-6-methoxypyrazolo[1,5-a]pyridin-3-yl)-3-fluoro-2-methoxyphenyl)-1-(hydroxymethyl)cyclopropane-1-sulfonamide], for which the half-maximal inhibitory concentration (IC50) in test [1] is < 50 nM; in test [2], < 1 nM; in test [3] it was < 1 nM. The Emax in test [3] is > 80%.

Turning to `COc1c(F)cc(-c2cnc3cc(OC[C@@H](C)CO)c(S(=O)(=O)C(C)(C)C)cn23)cc1NS(C)(=O)=O` [Example 182, (S)-N-(5-(6-(tert-butylsulfonyl)-7-(3-hydroxy-2-methylpropoxy)imidazo[1,2-a]pyridin-3-yl)-3-fluoro-2-methoxyphenyl)methanesulfonamide], the IC50 in test [1] was < 50 nM; in test [2], < 1 nM; in test [3] it was < 1 nM. Also, in test [3], the Emax lay within 55 to 80%.

Regarding `COc1c(F)cc(-c2cnc3cc(OC[C@H](C)CO)c(S(=O)(=O)C(C)(C)C)cn23)cc1NS(C)(=O)=O` [Example 183, (R)-N-(5-(6-(tert-butylsulfonyl)-7-(3-hydroxy-2-methylpropoxy)imidazo[1,2-a]pyridin-3-yl)-3-fluoro-2-methoxyphenyl)methanesulfonamide], the half-maximal inhibitory concentration (IC50) in test [1] is < 50 nM; in test [2], < 1 nM; in test [3], < 1 nM. The Emax in test [3] fell in the range of 55 to 80%.

Take `COc1cc2ncc(-c3cc(F)c(OC)c4[nH]c(CCO)nc34)n2cc1S(=O)(=O)C(C)(C)C` [Example 184, 2-(4-(6-(tert-butylsulfonyl)-7-methoxyimidazo[1,2-a]pyridin-3-yl)-6-fluoro-7-methoxy-1H-benzo[d]imidazol-2-yl)ethan-1-ol]: the IC50 was 250 to 1000 nM in test [1], 1 to 2.5 nM in test [2] and 1 to 2.5 nM in test [3]. For the same compound, the Emax in test [3] lay within 30 to 55%.

With `COc1cc2ncc(-c3cc(F)c(OC)c4[nH]c(CN5CC(O)C5)nc34)n2cc1S(=O)(=O)C(C)(C)C` [Example 185, 1-((4-(6-(tert-butylsulfonyl)-7-methoxyimidazo[1,2-a]pyridin-3-yl)-6-fluoro-7-methoxy-1H-benzo[d]imidazol-2-yl)methyl)azetidin-3-ol], the IC50 in test [1] fell in the range of 50 to 250 nM; in test [2], 2.5 to 20 nM; in test [3], 1 to 2.5 nM. In addition, in test [3], the Emax is 30 to 55%.

For `CC(C)(C)S(=O)(=O)c1cn2c(-c3cc(Br)c(N)nc3F)cnc2cc1OCCO` [Example 186, 2-((3-(6-amino-5-bromo-2-fluoropyridin-3-yl)-6-(tert-butylsulfonyl)imidazo[1,2-a]pyridin-7-yl)oxy)ethan-1-ol], the figures for the IC50 in test [1], in test [2] and in test [3] were 250 to 1000 nM, 2.5 to 20 nM and 2.5 to 20 nM, respectively. Also, in test [3], the Emax was > 80%.

As to `CC(C)(C)S(=O)(=O)c1cc2c(-c3cc(Cl)c(N)nc3F)cnn2cc1OCCOP(=O)(O)O` [Example 187, 2-((3-(6-amino-5-chloro-2-fluoropyridin-3-yl)-5-(tert-butylsulfonyl)pyrazolo[1,5-a]pyridin-6-yl)oxy)ethyl dihydrogen phosphate], the IC50 was 250 to 1000 nM in test [1], 2.5 to 20 nM in test [2] and 2.5 to 20 nM in test [3]. For the same compound, in test [3], the Emax is > 80%.

In the case of `CC(C)(C)S(=O)(=O)c1cc2c(-c3cc(F)c(N)nc3F)cnn2cc1OCCOP(=O)(O)O` [Example 188, 2-((3-(6-amino-2,5-difluoropyridin-3-yl)-5-(tert-butylsulfonyl)pyrazolo[1,5-a]pyridin-6-yl)oxy)ethyl dihydrogen phosphate], the IC50 is > 1000 nM in test [1], > 20 nM in test [2] and > 20 nM in test [3]. Also, the Emax in test [3] is > 80%.

Turning to `CC(C)(C)C(C)(O)c1cn2c(-c3cc(F)c(N)nc3F)cnc2cc1OCCO` (stereo not drawn) [Example 189, 2-(3-(6-amino-2,5-difluoropyridin-3-yl)-7-(2-hydroxyethoxy)imidazo[1,2-a]pyridin-6-yl)-3,3-dimethylbutan-2-ol], the IC50 in test [1] is > 1000 nM; in test [2], > 20 nM; in test [3] it was > 20 nM.

For `CCS(=O)(=O)Nc1cc(-c2cnc3cc(OC)c(C(=O)N4CCOCC4)cn23)cc(F)c1OC` [Example 190, N-(3-fluoro-2-methoxy-5-(7-methoxy-6-(morpholine-4-carbonyl)imidazo[1,2-a]pyridin-3-yl)phenyl) ethanesulfonamide], the IC50 was > 1000 nM in test [1], > 20 nM in test [2] and > 20 nM in test [3]. In addition, in test [3], the Emax is 55 to 80%.

As for `CCCS(=O)(=O)Nc1cc(-c2cnc3cc(OC)c(C(=O)N4CCNCC4)cn23)cc(F)c1OC` [Example 191, N-(3-fluoro-2-methoxy-5-(7-methoxy-6-(piperazine-1-carbonyl)imidazo[1,2-a]pyridin-3-yl)phenyl)propane-1-sulfonamide], the figures for the concentration for half-maximal inhibition (IC50) in test [1], in test [2] and in test [3] were > 1000 nM, 2.5 to 20 nM and 2.5 to 20 nM, respectively. For the same compound, in test [3], the Emax was > 80%.

As for `CCS(=O)(=O)Nc1cc(-c2cnc3cc(OC)c(C(=O)N4CCC(O)CC4)cn23)cc(F)c1OC` [Example 192, N-(3-fluoro-5-(6-(4-hydroxypiperidine-1-carbonyl)-7-methoxyimidazo[1,2-a]pyridin-3-yl)-2-methoxyphenyl) ethanesulfonamide], the values for the IC50 in test [1], in test [2] and in test [3] were > 1000 nM, 2.5 to 20 nM and 2.5 to 20 nM, respectively. For the same compound, the Emax in test [3] was > 80%.

In the case of `C[C@@H](CO)COc1cn2ncc(-c3cc(F)c(N)nc3F)c2cc1S(=O)(=O)C(C)(C)C` [Example 194, (S)-3-((3-(6-amino-2,5-difluoropyridin-3-yl)-5-(tert-butylsulfonyl)pyrazolo [1,5-a]pyridin-6-yl)oxy)-2-methylpropan-1-ol], the half-inhibitory concentration (IC50) in test [1] is 50 to 250 nM; in test [2], < 1 nM; in test [3], 1 to 2.5 nM. Further, the Emax in test [3] is > 80%.

As to `C[C@H](CO)COc1cn2ncc(-c3cc(F)c(N)nc3F)c2cc1S(=O)(=O)C(C)(C)C` [Example 195, (R)-3-((3-(6-amino-2,5-difluoropyridin-3-yl)-5-(tert-butylsulfonyl)pyrazolo [1,5-a]pyridin-6-yl)oxy)-2-methylpropan-1-ol], the results for the IC50 in test [1], in test [2] and in test [3] were < 50 nM, < 1 nM and < 1 nM, respectively. Also, the Emax in test [3] is > 80%.
